From publication PMC9170688, “Gametocyte-specific and all-blood-stage transmission-blocking chemotypes discovered from high throughput screening on Plasmodium falciparum gametocytes” (Communications Biology, 2022)
“And” between values parts separate entries of the source, which are not always exact repeats. Equal entries are not always repeated.

Columns and labels:
[1] = test system: P. falciparum NF54 pfs16-GFP-PyLUC gametocytes; test: P. falciparum gametocyte luminescence assay (PfLuc), line NF54 pfs16-GFP-PyLUC; type: cell-based, Plasmodium falciparum; settings: gametocytes, line NF54 pfs16; read-out: Pf Gametocytes NF54 pfs16 (IC50 nM)
Procedure: (§1) To exclude false positive compounds that may interfere with the click beetle CBG99 luciferase signal and to confirm the activity on gametocytes produced by other P. falciparum lines, we tested the above 638 compounds at a single concentration of 10 µM on gametocytes from two NF54 strain derived lines: pfs16-GFP-PyLUC (Photinus pyralis luciferase under the same pfs16 promoter)[14],[16],[27] and hsp86-PpyRE13 that was generated for this work to express the mutated Photinus pyralis PpyRE13 luciferase in gametocytes under the promoter of the pfhsp86 gene.
(§2) With the selected 84 compounds, the subsequent step aimed at determining the gametocyte inhibition potency and the parasite stage selectivity between the gametocytes and the asexual stages in the NF54 hsp86-PpyRE13. […] Similar data were obtained considering the gametocyte IC50 values measured in the NF54 pfs16-GFP-PyLUC strain (see Supplementary Data 2).
(§3) Parasite gametocyte luminescence assays were performed in 384-well plates (Thermo, 4332, USA) by infected red blood cells seeded at 40 µL/well at a haematocrit of 0.625% for the strain 3D7elo1-pfs16-CBG99, 1.875% for both strains NF54 hsp86-PpyRE13 and NF54 pfs16-GFP-PyLUC. Assay were performed in the medium: 10.44 g/L RPMI 1640 Medium (Gibco, 51800043), 5.95 g/L HEPES (Sigma, H4034), 50 mg/L Hypoxantine (Sigma, 56700), 10% heat inactivated human serum, 10 ml of Neomycin solution (Sigma, N1142) and 2.1 g/L NaHCO3 (Sigma, 144-55-8). Compounds or DMSO as control were pre dispensed on plates, from 10 mM DMSO stock solutions, via an acoustic droplet ejection device (ATS-100, EDC Biosystems) to achieve the final desired concentration. Assay plates were incubated for 48 h at 37 °C in 4% CO2, 3% O2, and 93% N2 modified atmosphere. After incubation, 20 µL/well of a solution of luciferin (Regis, 1-360242-200) potassium/sodium salt (300 µg/ml) are added to the assay plates and read at suitable luminescence detection after 1 min incubation at room temperature. The whole HTS was performed in 7 rounds of 30–80 plates each in two months’ time.

[2] = test system: P. falciparum NF54 male gametocytes (stage V); test: Male gamete exflagellation assay; type: cell-based, Plasmodium falciparum; settings: for Inhibition of male exflagellation at 1 µM: 48 h
Procedure: The above selected 30 compounds were subjected to a phenotypic male gamete exflagellation assay. This assay measures the viability of male gametocytes by quantitating the final step of maturation into motile microgametes in vitro[24]. This process naturally occurs in the mosquito gut within minutes from the blood meal. The acquisition of time lapse videos of gamete motility in bright field microscopy and the subsequent analysis to count exflagellation centres were performed in an automated HTS format in 384-well plates. The compounds were tested in two independent biological replicates at the concentration of 1 µM. […] The results of this study led to the identification of 16 compounds with anti-exflagellation activity (Fig. 4). […] The standard membrane feeding assay (SMFA) is used to measure the parasite transmission through mosquito. In this assay, mature stage V gametocytes of the P. falciparum strain NF54-hsp70-luc were treated with 1 and 10 µM of the nine selected compounds for 24 h, added with human red blood cells and serum to achieve a haematocrit of 50% and then fed to mosquitoes. Luminescence was analyzed in […] 8 days post-feeding.
Asexual parasites of the NF54 line, kindly obtained from Elena Levashina’s laboratory (Max Plank Institute for Infection Biology, Berlin, Germany), were seeded at 1% total parasitemia and grown for 16 days changing medium every day until development of stage V gametocytes (about 1–2% of stage V gametocytemia). 100 µl of gametocyte culture was seeded in each well of a 96 well-plate and 100 µl of 2× concentration of compounds or DMSO as control were added to each well to achieve the desired final concentration. Assay plates were incubated for 48 h at 37 °C in 4% CO2, 3% O2, and 93% N2 modified atmosphere. After the incubation period, 100 µl of medium were removed from each well and the other 100 µl were transferred to a black imaging 96 well plate (ibidi) containing 100 µl of complete medium supplemented with 40 µM of xanthurenic acid. After 15 min, exflagellation events were captured by three ten-second videos each well with an Olympus IX83 inverted microscope with a UPLSAPO 10× N.A. 0.75 objective (Olympus, Japan), equipped with a Hamamatsu ORCA-Flash 4.0 V3 camera. Each video was analyzed using the Icy bio-image analysis software (http://icy.bioimageanalysis.org/) to count the number of exflagellation events.

HeLa cells = test: HeLa cell proliferation assay (CellTiter Glo); type: cell-based, human
Procedure: In addition, we tested the 84 compounds in a dose-response fashion on HeLa cells to quantitatively monitor their cytotoxicity potential.
HeLa cells (CCL-2, ATCC, USA) were cultured in DMEM without phenol red (Thermo, 11880, USA) + 10% FBS + 1X PenStrep + 1X Gln. They were plated in a 384-well plate (Thermo, 4334-11, USA) to a density of 2000 cells per well and let recover for 4 h at 37 °C, 5% CO2 in a humidified atmosphere. After the recovery, compounds were transferred to assay plates as per compound preparation method. Assay plates were then incubated at 37 °C, 5% CO2 in a humidified atmosphere for 72 h. Cell viability was measured by the CellTiTer Glo (Promega, G8080, USA) as per manufacturer instruction.

[3] = test system: P. falciparum NF54 hsp86-PpyRE13 gametocytes; test: P. falciparum gametocyte luminescence assay (PfLuc), line NF54 hsp86-PpyRE13; type: cell-based, Plasmodium falciparum; settings: gametocytes, line NF54 HSP86; read-out: Pf Gametocytes NF54 HSP86 (IC50 nM)
Procedure: as §1, §2, §3

[4] = test system: P. falciparum NF54 hsp86-PpyRE13 asexual stages; test: P. falciparum asexual stage assay (pLDH); type: cell-based, Plasmodium falciparum; settings: asexual stages, line NF54 Hsp86 PpYRE13; read-out: NF54 Hsp86 PpYRE13 (IC50 nM)
Procedure: as §2
Parasite proliferation assays were performed in 384-well plates (Thermo, 4332, USA) with a starting parasitemia of 0.25% at a haematocrit of 2% by quantification of parasite lactate dehydrogenase (pLDH). Compounds or DMSO as control were pre dispensed on plates, from 10 mM DMSO stock solutions, via an acoustic droplet ejection device (ATS-100, EDC Biosystems) to achieve de final desired concentration. Assay plates were incubated for 72 h at 37 °C in 4% CO2, 3% O2, and 93% N2 modified atmosphere. After the incubation period, plates are frozen at −80 °C for two h and then thawed at room temperature for 2 h. Then, 50 µL of the developer solution (70 mM Tris-HCl pH 8.0, 0.5% Tween-20, 100 mM Lithium L-Lactate, 125 µM nitro blue tetrazolium, 2 U/ml diaphorase and 100 µM 3-Acetylpyridine Adenine Dinucleotide) are added to each well and let to react for 10 min. Absorbance was then read at 650 nm by a suitable spectrophotometer.

[5] = test system: P. falciparum NF54 male gametocytes (stage V); test: Male gamete exflagellation assay; type: cell-based, Plasmodium falciparum; settings: 48 h
[6] = test system: P. falciparum 3D7elo1-pfs16-CBG99 gametocytes; test: P. falciparum gametocyte luminescence assay (PfLuc), primary HTS line 3D7elo1-pfs16-CBG99; type: cell-based, Plasmodium falciparum; settings: 10 µM MB, Rep1-Rep2
From the text: In this line, the CBG99 luciferase-coding region (from the click beetle Pyrophorus plagiophthalamus) is integrated into the parasite genome and expressed under the control of the pfs16 gametocyte-specific promoter.
Obtaining an accurate gametocyte synchronization with minimal parasite handling is of paramount importance to establish a robust and reliable HTS assay. To this aim, the timing of addition of N-acetyl glucosamine (NAG), used to clear residual asexual stages after appearance of stage I gametocytes, was optimized. […] Using these cultures, different haematocrit percentages (0.625, 1.25 and 2.5%) and two incubation times (48- and 72 h) were tested to identify the optimal luciferase readout.
A collection of 119.059 compounds of the CNCCS library was tested on gametocytes of the 3D7elo1-pfs16-CBG99 strain at 10 µM using the protocol described above. […]
as §3

[7] = test system: P. falciparum strain NF54-hsp70-luc stage V gametocytes fed to Anopheles stephensi mosquitoes; test: whole plant or invertebrate; type: in vivo, Plasmodium falciparum; settings: for transmission blocking in SMFA: 24 h treatment; for luminescence signal of individual mosquitoes (SMFA, Fig. 5): one value per mosquito
Procedure: The above selected 30 compounds were subjected to a phenotypic male gamete exflagellation assay. This assay measures the viability of male gametocytes by quantitating the final step of maturation into motile microgametes in vitro[24]. This process naturally occurs in the mosquito gut within minutes from the blood meal. The acquisition of time lapse videos of gamete motility in bright field microscopy and the subsequent analysis to count exflagellation centres were performed in an automated HTS format in 384-well plates. The compounds were tested in two independent biological replicates at the concentration of 1 µM. […] The standard membrane feeding assay (SMFA) is used to measure the parasite transmission through mosquito. In this assay, mature stage V gametocytes of the P. falciparum strain NF54-hsp70-luc were treated with 1 and 10 µM of the nine selected compounds for 24 h, added with human red blood cells and serum to achieve a haematocrit of 50% and then fed to mosquitoes. Luminescence was analyzed in the mosquito salivary glands 8 days post-feeding.
SMFA was performed commercially by TropiQ Health Sciences (Nijmegen, The Netherlands). Test samples were diluted in DMSO and then in RPMI medium (Gibco, 51800043) to achieve a final DMSO concentration of 0.1%. Diluted samples were combined with stage V gametocytes from P. falciparum strain NF54-hsp70-luc and incubated for 24 h. Subsequently, human red blood cells and human serum with the sample were added to achieve a haematocrit of 50%. The blood meal was fed to two-day old Anopheles stephensi mosquitoes that were starved the night prior to the blood meal. […] Mosquito infection was analyzed 8 days post-feeding by luminescence measurements of whole mosquitoes as described previously. For each feeder, luminescence intensity was analyzed in 15–24 mosquitoes per feeder (N = 1, n = 15–24). Luminescence background levels were determined from 15–24 uninfected mosquitoes. Controls: vehicle (0.1% DMSO) in duplicate.

O=S(=O)(NCC1(O)CCOc2ccccc21)c1ccc(Br)s1 (stereo not drawn) [Compound 84, reference compound]
IC50 [1]: 11300 nM | Inhibition of male exflagellation at 1 µM ([2]; Replicate 1): 1.9 | Inhibition of male exflagellation at 1 µM ([2]; Replicate 2): 0 | Exflagellation @ 1 uM (% of DMSO) 1 ([2]; 1 uM, replicate 1): 1.90 % of DMSO | Exflagellation @ 1 uM (% of DMSO) 2 ([2]; 1 uM, replicate 2): 0.00 % of DMSO | IC50 (HeLa cells): > 32000 nM | IC50 [3]: 29600 nM | IC50 [4]: > 51200 nM

CN(C)c1ccc2nc3ccc(=[N+](C)C)cc-3sc2c1 [MB, methylene blue]
Inhibition of male exflagellation at 1 µM ([5]; Replicate 3): 5.8 | Inhibition of male exflagellation at 1 µM ([5]; Replicate 4): 7.7 | Inhibition of male exflagellation at 1 µM ([2]; Replicate 1): 2.985 | Inhibition of male exflagellation at 1 µM ([2]; Replicate 2): 1.163 | Luminescence counts ([6]; 48 h, hematocrit 0.625%): 88 RLU and 72 RLU | Luminescence counts ([6]; 48 h, hematocrit 2.5%): 208 RLU and 224 RLU | Luminescence counts ([6]; 72 h, hematocrit 0.625%): 64 RLU and 56 RLU | Luminescence counts ([6]; 72 h, hematocrit 1.25%): 48 RLU and 56 RLU | Luminescence counts ([6]; 72 h, hematocrit 2.5%): 80 RLU and 88 RLU

CS(=O)(=O)c1ccc(-c2cnc(N)c(-c3ccc(C(F)(F)F)nc3)c2)cc1 [MMV0048, reference compound]
transmission blocking in SMFA ([7]; 1 µM): abolished the parasite transmission | transmission blocking in SMFA ([7]; 10 µM): abolished the parasite transmission

CS(=O)(=O)c1ccc(-c2cnc(N)c(-c3ccc(C(F)(F)F)nc3)c2)cc1 [MMV-048]
luminescence signal of individual mosquitoes (SMFA, Fig. 5) ([7]; compound at 1 µM): 6 and 9 and 5 and 28 and 32 and 4 and 3 and 8 and 58 and 2 and 20 and 83 | luminescence signal of individual mosquitoes (SMFA, Fig. 5) ([7]; compound at 10 µM): 6 and 8 and 5 and 3 and 7
